Data taken from US5973188A (priority 1993, dated 1999).

tested on: ADP-induced aggregation of platelets in human PRP; test: animal or person; details: Platelet, po, read-out: ID50 (dose administered orally that inhibits by 50% the ADP-induced ex vivo aggregation of platelets in human PRP)

| Structure (SMILES) | ED50 [mg/kg] |
| --- | --- |
| CC(C)OC(=O)COC1CCN(C(=O)[C@H](C)NC(=O)c2ccc(C(N)=NO)cc2)CC1 (mixture of isomers) [Example 76, isopropyl (E/Z)-(S)-1-[2-[4-(amino-hydroxyimino-methyl)-benzoylamino]-propionyl]-piperidin-4-yloxyacetate] | 0.2 |
| CCOC(=O)COc1ccc(C(=O)C(C)NC(=O)c2ccc(C(N)=NO)cc2)cc1 (racemic) [Example 32, ethyl (Z)-(R,S)-4-[2-[4-[amino-hydroxyimino-methyl]-benzoylamino]-propionyl]-phenoxyacetate] | 0.2 |
| CCOC(=O)COc1ccc(C(=O)[C@H](C)NC(=O)c2ccc(/C(N)=N/O)cc2)cc1 [Example 41, ethyl (Z)-(S)-4-[2-[4-(amino-hydroxyimino-methyl)-benzoylamino]-propionyl]-phenoxyacetate] | 0.2 |
| CCOC(=O)N=C(N)c1ccc(C(=O)N[C@@H](Cc2ccc(OC(=O)OCC)cc2)C(=O)N2CCC(OCC(=O)OC(C)C)CC2)cc1 (mixture of isomers) [Example 49, Isopropyl (E/Z)-(S)-1-[2-[4-(amino-ethoxycarbonylimino-methyl)-benzoylamino]-3-(4-ethoxycarbonyloxy-phenyl)-propionyl]-piperidin-4-yloxyacetate] | 1.2 |
| CCOC(=O)COc1ccc(C(=O)C(CSC)NC(=O)c2ccc(C(=N)NC(=O)OCC)cc2)cc1 (racemic) [Example 27, ethyl (R,S)-4-[2-[4-(ethoxycarbonylamino-imino-methyl)-benzoylamino]-3-methylsulphanyl-propionyl]-phenoxyacetate] | 4.3 |
| COCCOC(=O)COc1ccc(C(=O)[C@H](C)NC(=O)c2ccc(C(=N)N)cc2)cc1 [Example 22, 2-methoxy-ethyl (S)-4-[2-[4-(amino-imino-methyl)-benzoylamino]-propionyl]-phenoxyacetate] | 1.8 |
| CCOC(=O)COc1ccc(C(=O)[C@H](C)NC(=O)c2ccc(C(=N)NC(=O)OCCOC)cc2)cc1 [Example 28, ethyl (S)-4-[2-[4-[imino-2-(methoxy-ethoxycarbonylamino)-methyl]-benzoylamino]-propionyl]-phenoxyacetate] | 0.3 |
| CCOC(=O)N=C(N)c1ccc(C(=O)N[C@@H](Cc2ccc(OC(=O)c3ccccc3OC(C)=O)cc2)C(=O)N2CCC(OCC(=O)OC(C)C)CC2)cc1 (mixture of isomers) [Example 53, (E/Z)-(S)-4-[2-[4-(amino-ethoxycarbonylimino-methyl)-benzoylamino]-3-(4-isopropoxy-carbonylmethoxy-piperidin-1-yl)-3-oxo-propyl]-phenyl 2-acetoxy-benzoate] | 1.5 |
| CCOC(=O)COc1ccc(C(=O)[C@H](COC(C)=O)NC(=O)c2ccc(C(=N)N)cc2)cc1 [Example 24, ethyl (S)-4-[2-[4-(amino-imino-methyl)-benzoylamino]-3-acetoxy-propionyl]-phenoxy-acetate] | 2.3 |
| CCOC(=O)COc1ccc(C(=O)[C@H](C)NC(=O)COC2CCNCC2)cc1 [Example 29, ethyl (S)-4-(2-piperidin-4-yloxyacetylamino-propionyl)-phenoxyacetate] | 1 |
| C[C@H](NC(=O)c1ccc(C(=N)N)cn1)C(=O)N1CCC(OCC(=O)OC2CCOCC2)CC1 [Example 63, tetrahydropyran-4-yl (S)-1-[2-(5-amino-imino-methyl-pyridin-2-ylcarbonylamino)-propionyl]-piperidin-4-yloxy-acetate] | 1.1 |
| CCOC(=O)COc1ccc(C(=O)C(C)NC(=O)c2ccc(C(N)=NOC(=O)OCC)cc2)cc1 (racemic) [Example 35, ethyl (Z)-(R,S)-4-[2-[4-[amino-ethoxycarbonyloximino-methyl]-benzoylamino]-propionyl]-phenoxyacetate] | 0.5 |
| CC(C)COC(=O)NC(=N)c1ccc(C(=O)CC(C)C(=O)N2CCC(OCC(=O)OC(C)C)CC2)cc1 (racemic) [Example 85, isopropyl (RS)-[1-[4-[4-(Isobutoxycarbonylamino-imino-methyl)-phenyl]-2-methyl-4-oxo-butyryl]-piperidin-4-yloxy]-acetate] | 0.4 |
| COCCOC(=O)COc1ccc(C(=O)[C@H](C)NC(=O)c2ccc(C(=N)NC(=O)OCCOC)cc2)cc1 [Example 40, 2-methoxy-ethyl (S)-^4-[2-[4-[imino-(2-methoxy-ethoxy-carbonylamino)-methyl]-benzoylamino]-propionyl]-phenoxyacetate] | 0.6 |
| COc1ccc(C[C@H](NC(=O)c2ccc(C(=N)N)cc2)C(=O)c2ccc(OCC(=O)O)cc2)cc1 [Example 11, (S)-4-[2-[4-(amino-imino-methyl)-benzoylamino]-3-(4-methoxy-phenyl)-propionyl]-phenoxyacetic acid] | 3.1 |
| CCOC(=O)NC(=N)c1ccc(C(=O)N[C@@H](C)C(=O)c2ccc(OCC(=O)OC3CCOCC3)cc2)cc1 [Example 33, tetrahydropyran-4-yl (S)-4-[2-[4-(ethoxycarbonylamino-imino-methyl)-benzoylamino]-propionyl]-phenoxyacetate] | 0.6 |
| CCOC(=O)COc1ccc(C(=O)[C@H](C)NC(=O)c2ccc(C(=N)NC(=O)Oc3ccccc3)cc2)cc1 [Example 36, ethyl (S)-4-[2-[4-(imino-phenoxycarbonylamino-methyl)-benzoylamino]-propionyl]-phenoxyacetate] | 0.5 |
| C[C@H](NC(=O)c1ccc(C(=N)N)cc1)C(=O)c1ccc(OCC(=O)OCC2CC2)cc1 [Example 3, cyclopropylmethyl (S)-4-[2-[4-(amino-imino-methyl)-benzoylamino]-propionyl]-phenoxyacetate] | 2.7 |
| CCOC(=O)N=C(N)c1ccc(C(=O)N[C@@H](Cc2ccc(OC(=O)c3ccco3)cc2)C(=O)N2CCC(OCC(=O)OC(C)C)CC2)cc1 (mixture of isomers) [Example 51, (E/Z)-(S)-4-[2-[4-(amino-ethoxycarbonylimino-methyl)-benzoylamino]-3-(4-isopropoxy-carbonylmethoxy-piperidin-1-yl)-3-oxo-propyl]-phenyl furan-2-carboxylate] | 3.9 |
| CCOC(=O)COc1ccc(C(=O)[C@H](CO)NC(=O)c2ccc(C(=N)N)cc2)cc1 [Example 9, ethyl (S)-4-[2-[4-(amino-imino-methyl)-benzoylamino]-3-hydroxy-propionyl]-phenoxyacetate] | 1.4 |
| CCOC(=O)NC(=N)c1ccc(C(=O)CCC(=O)N2CCC(OCC(=O)OC(C)C)CC2)cc1 [Example 80, isopropyl [1-[4-[4-(ethoxycarbonylamino-imino-methyl)-phenyl]-4-oxo-butyryl]-piperidin-4-yloxy]-acetate] | 0.7 |
| CCOC(=O)COc1ccc(C(=O)[C@@H](NC(=O)c2ccc(C(=N)N)cc2)[C@@H](C)O)cc1 [Example 20, ethyl (2S,3R)-4-[2-[4-(amino-imino-methyl)-benzoylamino]-3-hydroxy-butyryl]-phenoxyacetate] | 2.4 |
| C[C@H](NC(=O)c1ccc(C(=N)N)cc1)C(=O)c1ccc(OCC(=O)OC2CCCCC2)cc1 [Example 4, cyclohexyl (S)-4-[2-[4-(amino-imino-methyl)-benzoylamino]-propionyl]-phenoxyacetate] | 2.1 |
| CCOC(=O)N=C(N)c1ccc(C(=O)N[C@@H](Cc2ccc(OC(=O)c3ccccc3N)cc2)C(=O)N2CCC(OCC(=O)OC(C)C)CC2)cc1 (mixture of isomers) [Example 50, (E/Z)-(S)-4-[2-[4-(amino-ethoxycarbonylimino-methyl)-benzoylamino]-3-(4-isopropoxy-carbonylmethoxy-piperidin-1-yl)-3-oxo-propyl]-phenyl 2-amino-benzoate] | 1.3 |
| CCOC(=O)N=C(N)c1ccc(C(=O)N[C@@H](C)C(=O)N2CCC(OCC(=O)OC(C)C)CC2)cc1 (mixture of isomers) [Example 60, isopropyl (E/Z)-(S)-1-[2-[4-(amino-ethoxycarbonylimino-methyl)-benzoylamino]-propionyl]-piperidin-4-yloxyacetate] | 0.3 |
| COc1ccc(C[C@H](NC(=O)c2ccc(CN)cn2)C(=O)N2CCC(OCC(=O)OC(C)C)CC2)cc1 [Example 72, isopropyl (S)-1-[2-(5-aminomethyl-pyridin-2-ylcarbonylamino)-3-(4-methoxy-phenyl)-propionyl]-piperidin-4-yloxyacetate] | 2.7 |
| CCOC(=O)COc1ccc(C(=O)[C@H](C)NC(=O)c2ccc(C(=N)NC(=O)OC3CCOCC3)cc2)cc1 [Example 38, ethyl (S)-4-[2-[4-[imino-(tetrahydro-pyran-4-yloxy-carbonylamino)-methyl]-benzoylamino]-propionyl]-phenoxyacetate] | 2.9 |
